In BindingDB's records for PubMed 11082457 (Centre De Recherches De Croissy, 2000):

Assays:
[1] = biological target: T1, Amine oxidase [flavin-containing] B (Rattus norvegicus, UniProt P19643)
T1 sequence (P19643 whole entry): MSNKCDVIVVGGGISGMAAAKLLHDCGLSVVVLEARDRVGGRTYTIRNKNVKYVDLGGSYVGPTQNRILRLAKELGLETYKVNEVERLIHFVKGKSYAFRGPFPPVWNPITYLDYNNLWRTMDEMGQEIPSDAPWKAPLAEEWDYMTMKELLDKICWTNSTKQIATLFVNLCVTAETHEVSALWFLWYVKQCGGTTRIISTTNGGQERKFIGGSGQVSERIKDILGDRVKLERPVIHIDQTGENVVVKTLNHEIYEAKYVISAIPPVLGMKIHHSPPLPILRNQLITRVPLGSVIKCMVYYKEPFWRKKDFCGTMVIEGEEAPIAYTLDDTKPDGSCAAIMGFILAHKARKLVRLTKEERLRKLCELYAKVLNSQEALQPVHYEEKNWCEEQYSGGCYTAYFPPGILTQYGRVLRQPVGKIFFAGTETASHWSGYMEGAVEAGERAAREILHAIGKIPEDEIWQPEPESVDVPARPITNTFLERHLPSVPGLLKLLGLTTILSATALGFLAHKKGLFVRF

[2] = biological target: Sodium-dependent noradrenaline transporter (Homo sapiens, UniProt P23975)
[3] = biological target: T2, Alpha-1B adrenergic receptor (Homo sapiens, UniProt P35368)
T2 sequence (P35368 whole entry): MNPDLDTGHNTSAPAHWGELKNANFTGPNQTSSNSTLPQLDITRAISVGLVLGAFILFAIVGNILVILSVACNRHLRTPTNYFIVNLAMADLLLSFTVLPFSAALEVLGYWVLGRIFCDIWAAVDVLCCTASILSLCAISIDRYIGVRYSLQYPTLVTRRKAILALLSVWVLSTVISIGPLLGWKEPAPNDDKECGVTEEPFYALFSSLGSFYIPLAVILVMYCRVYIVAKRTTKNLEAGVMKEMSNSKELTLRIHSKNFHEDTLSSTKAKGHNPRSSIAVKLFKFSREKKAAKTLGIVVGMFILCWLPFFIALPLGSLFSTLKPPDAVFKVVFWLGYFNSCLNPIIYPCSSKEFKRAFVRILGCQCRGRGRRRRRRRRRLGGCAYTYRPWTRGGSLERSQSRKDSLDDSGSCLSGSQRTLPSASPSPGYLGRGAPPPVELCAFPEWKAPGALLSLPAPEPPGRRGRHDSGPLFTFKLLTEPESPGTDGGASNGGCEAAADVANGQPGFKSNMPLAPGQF

Nischarin [4] = biological target: T3, Nischarin (Bos mutus, UniProt L8IEU8)
T3 sequence (L8IEU8 whole entry): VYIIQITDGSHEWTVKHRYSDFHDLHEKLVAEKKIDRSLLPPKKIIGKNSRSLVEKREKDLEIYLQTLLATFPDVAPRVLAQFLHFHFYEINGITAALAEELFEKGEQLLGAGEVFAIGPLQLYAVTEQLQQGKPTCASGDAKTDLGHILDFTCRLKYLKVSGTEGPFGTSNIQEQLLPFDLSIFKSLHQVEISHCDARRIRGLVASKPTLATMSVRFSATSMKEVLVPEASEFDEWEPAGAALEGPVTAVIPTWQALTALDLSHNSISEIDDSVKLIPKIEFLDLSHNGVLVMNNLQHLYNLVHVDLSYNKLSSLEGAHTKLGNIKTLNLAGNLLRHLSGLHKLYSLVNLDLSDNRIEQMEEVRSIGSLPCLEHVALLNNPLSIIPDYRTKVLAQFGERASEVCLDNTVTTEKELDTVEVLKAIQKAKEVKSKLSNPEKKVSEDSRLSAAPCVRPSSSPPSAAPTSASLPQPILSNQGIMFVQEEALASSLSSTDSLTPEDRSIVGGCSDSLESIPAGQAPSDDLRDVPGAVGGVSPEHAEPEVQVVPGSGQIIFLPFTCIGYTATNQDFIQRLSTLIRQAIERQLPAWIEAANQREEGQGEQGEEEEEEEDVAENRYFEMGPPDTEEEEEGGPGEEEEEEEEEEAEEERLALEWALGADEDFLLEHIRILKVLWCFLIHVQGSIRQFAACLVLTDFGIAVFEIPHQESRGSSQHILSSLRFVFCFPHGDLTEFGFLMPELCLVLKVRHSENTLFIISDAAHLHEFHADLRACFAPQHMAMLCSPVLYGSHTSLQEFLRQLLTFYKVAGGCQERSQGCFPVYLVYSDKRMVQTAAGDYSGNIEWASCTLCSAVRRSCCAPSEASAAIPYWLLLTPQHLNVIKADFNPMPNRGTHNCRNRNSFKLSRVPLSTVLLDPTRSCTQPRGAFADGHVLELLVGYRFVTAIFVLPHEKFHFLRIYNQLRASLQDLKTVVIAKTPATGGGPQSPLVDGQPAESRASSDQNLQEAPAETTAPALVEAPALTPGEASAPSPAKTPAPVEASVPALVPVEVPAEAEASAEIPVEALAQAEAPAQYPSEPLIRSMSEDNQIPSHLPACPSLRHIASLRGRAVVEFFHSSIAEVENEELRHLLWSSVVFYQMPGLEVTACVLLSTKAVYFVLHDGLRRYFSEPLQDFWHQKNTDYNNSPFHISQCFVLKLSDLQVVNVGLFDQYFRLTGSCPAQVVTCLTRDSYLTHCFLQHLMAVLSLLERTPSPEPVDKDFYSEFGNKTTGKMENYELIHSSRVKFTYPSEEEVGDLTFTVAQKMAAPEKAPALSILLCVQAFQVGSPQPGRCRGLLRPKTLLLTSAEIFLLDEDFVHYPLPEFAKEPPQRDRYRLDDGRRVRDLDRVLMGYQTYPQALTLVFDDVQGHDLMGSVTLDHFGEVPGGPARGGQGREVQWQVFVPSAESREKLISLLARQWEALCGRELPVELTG

Nischarin [5] = biological target: Nischarin (Rattus norvegicus, UniProt Q4G017)
Nischarin (Rattus norvegicus, UniProt Q4G017), sequence (Q4G017 whole entry): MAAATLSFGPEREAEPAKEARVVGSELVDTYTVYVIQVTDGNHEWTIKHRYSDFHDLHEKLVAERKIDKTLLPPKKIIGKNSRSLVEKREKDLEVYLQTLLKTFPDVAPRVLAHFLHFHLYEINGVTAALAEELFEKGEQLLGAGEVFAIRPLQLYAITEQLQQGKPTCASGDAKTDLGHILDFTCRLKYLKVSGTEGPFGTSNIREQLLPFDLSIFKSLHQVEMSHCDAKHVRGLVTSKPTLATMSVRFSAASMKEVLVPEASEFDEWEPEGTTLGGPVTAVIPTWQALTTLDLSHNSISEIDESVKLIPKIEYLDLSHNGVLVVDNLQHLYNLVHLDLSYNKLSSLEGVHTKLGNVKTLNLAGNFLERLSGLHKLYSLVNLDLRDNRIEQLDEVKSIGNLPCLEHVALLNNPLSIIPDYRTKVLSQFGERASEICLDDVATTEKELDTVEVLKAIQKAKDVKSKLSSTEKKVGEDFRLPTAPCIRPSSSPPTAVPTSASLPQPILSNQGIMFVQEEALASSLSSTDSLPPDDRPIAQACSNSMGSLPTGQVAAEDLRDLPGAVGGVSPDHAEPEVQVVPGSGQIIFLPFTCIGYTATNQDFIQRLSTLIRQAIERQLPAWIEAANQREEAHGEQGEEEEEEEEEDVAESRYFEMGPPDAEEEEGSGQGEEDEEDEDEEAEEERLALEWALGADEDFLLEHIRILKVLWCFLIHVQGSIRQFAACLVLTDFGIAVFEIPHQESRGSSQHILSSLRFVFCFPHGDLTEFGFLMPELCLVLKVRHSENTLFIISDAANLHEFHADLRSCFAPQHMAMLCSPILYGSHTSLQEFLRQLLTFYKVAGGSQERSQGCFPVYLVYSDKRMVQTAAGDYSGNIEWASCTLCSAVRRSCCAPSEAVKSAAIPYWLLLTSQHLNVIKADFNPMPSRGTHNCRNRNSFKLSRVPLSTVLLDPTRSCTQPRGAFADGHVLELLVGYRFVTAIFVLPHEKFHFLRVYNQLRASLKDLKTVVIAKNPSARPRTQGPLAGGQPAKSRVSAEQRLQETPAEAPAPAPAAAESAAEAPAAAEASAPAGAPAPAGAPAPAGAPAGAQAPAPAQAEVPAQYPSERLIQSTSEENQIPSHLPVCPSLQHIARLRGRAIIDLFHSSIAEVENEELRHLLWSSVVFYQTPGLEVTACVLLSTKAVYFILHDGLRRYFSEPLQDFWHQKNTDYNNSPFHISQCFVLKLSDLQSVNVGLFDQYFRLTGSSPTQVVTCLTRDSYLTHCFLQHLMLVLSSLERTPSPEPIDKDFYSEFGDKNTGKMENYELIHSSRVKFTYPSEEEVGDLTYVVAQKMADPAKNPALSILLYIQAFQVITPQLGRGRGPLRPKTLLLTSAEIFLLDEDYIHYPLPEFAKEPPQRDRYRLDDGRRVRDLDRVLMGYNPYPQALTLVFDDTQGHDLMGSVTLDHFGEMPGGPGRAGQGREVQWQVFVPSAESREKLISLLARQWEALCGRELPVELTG

Sodium-dependent noradrenaline transporter, sequence (P23975 whole entry): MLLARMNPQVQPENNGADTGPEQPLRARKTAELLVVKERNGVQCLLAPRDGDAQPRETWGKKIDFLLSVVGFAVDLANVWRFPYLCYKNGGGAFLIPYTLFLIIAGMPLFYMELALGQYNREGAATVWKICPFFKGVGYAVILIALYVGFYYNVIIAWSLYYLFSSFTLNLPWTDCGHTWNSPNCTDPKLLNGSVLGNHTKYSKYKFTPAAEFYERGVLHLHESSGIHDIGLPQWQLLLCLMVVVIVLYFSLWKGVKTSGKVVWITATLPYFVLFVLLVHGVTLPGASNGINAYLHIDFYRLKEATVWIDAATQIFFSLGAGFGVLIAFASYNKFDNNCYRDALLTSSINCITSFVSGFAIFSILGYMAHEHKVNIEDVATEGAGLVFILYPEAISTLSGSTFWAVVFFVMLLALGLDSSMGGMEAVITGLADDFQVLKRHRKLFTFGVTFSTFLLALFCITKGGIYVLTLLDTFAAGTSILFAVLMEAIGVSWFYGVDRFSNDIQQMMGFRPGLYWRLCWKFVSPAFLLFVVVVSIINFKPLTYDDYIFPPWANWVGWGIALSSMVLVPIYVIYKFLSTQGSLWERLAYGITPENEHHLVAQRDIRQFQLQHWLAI

SMILES	Ki [1] [nM]	Ki [2] [nM]	Ki [3] [nM]	Ki (Nischarin [4]) [nM]	Ki (Nischarin [5]) [nM]
NC1=NC2(CCc3ccccc3C2)CO1 (stereo not given) [S18616]	1000	1000	20	39.8	79.4
Cc1cccc([C@@H](C)c2cnc[nH]2)c1C	1000	1000	316	200	50.1
